In ChEMBL document CHEMBL3885881, “DrugMatrix”:

Organism: Rattus norvegicus
Test: DrugMatrix - Regimen: Daily Repeat
Assay type: toxicity, organism-based, Sprague-Dawley
Design: regimen Daily Repeat, gender Male, age 6-8 weeks
Conditions: in vivo, po, route oral GAVAGE, vehicle .5 % CMC; for ABSOLUTE BASOPHIL / ABSOLUTE EOSINOPHIL / ABSOLUTE LYMPHOCYTE / ABSOLUTE MONOCYTE / ABSOLUTE SEGMENTED NEUTROPHIL / BASOPHIL / EOSINOPHIL / ERYTHROCYTE COUNT / HEMATOCRIT / HEMOGLOBIN / LEUKOCYTE COUNT / LYMPHOCYTE / MEAN CORPUSCULAR HEMOGLOBIN / MEAN CORPUSCULAR HEMOGLOBIN CONCENTRATION / MEAN CORPUSCULAR VOLUME / MONOCYTE / NEUTROPHIL / NUCLEATED RED BLOOD CELLS / PLATELET COUNT: tissue Blood; for ALANINE AMINOTRANSFERASE / ALBUMIN / ALKALINE PHOSPHATASE / ASPARTATE AMINOTRANSFERASE / BLOOD UREA NITROGEN / CARBON DIOXIDE / CHLORIDE / CHOLESTEROL / CREATINE PHOSPHOKINASE / CREATININE / GLUCOSE / LACTATE DEHYDROGENASE / LIPASE / PHOSPHORUS / POTASSIUM / SODIUM / TOTAL BILIRUBIN / TOTAL PROTEIN / URIC ACID: tissue Plasma
[1] = 0 mg/kg, 72 h, dose level Control, time 3 day
[2] = 0 mg/kg, 120 h, dose level Control, time 5 day
[3] = 100 mg/kg, 72 h, dose level Low, time 3 day

O=C(O)CCc1nc(-c2ccccc2)c(-c2ccccc2)o1 [OXAPROZIN]
ABSOLUTE BASOPHIL [1]: 0 CELLS/uL
ABSOLUTE EOSINOPHIL [1]: 0 CELLS/uL
ABSOLUTE LYMPHOCYTE [1]: 12269.67 CELLS/uL
ABSOLUTE MONOCYTE [1]: 160.33 CELLS/uL
ABSOLUTE SEGMENTED NEUTROPHIL [1]: 970 CELLS/uL
BASOPHIL [1]: 0%
EOSINOPHIL [1]: 0%
ERYTHROCYTE COUNT [1]: 5.76 x10E6/uL
HEMATOCRIT [1]: 36.57%
HEMOGLOBIN [1]: 14.22 G/DL
LEUKOCYTE COUNT [1]: 13.4 x10E3/uL
LYMPHOCYTE [1]: 91.67%
MEAN CORPUSCULAR HEMOGLOBIN [1]: 24.67 pg
MEAN CORPUSCULAR HEMOGLOBIN CONCENTRATION [1]: 38.85 G/DL
MEAN CORPUSCULAR VOLUME [1]: 63.52 fL
MONOCYTE [1]: 1.17%
NEUTROPHIL [1]: 7.17%
NUCLEATED RED BLOOD CELLS [1]: 0.33 /100WBC
PLATELET COUNT [1]: 1250.83 x10E3/uL
ALANINE AMINOTRANSFERASE [1]: 49.17 u/L
ALBUMIN [1]: 4.33 G/DL
ALKALINE PHOSPHATASE [1]: 378.5 u/L
ASPARTATE AMINOTRANSFERASE [1]: 82.17 u/L
BLOOD UREA NITROGEN [1]: 15 mg/dL
CARBON DIOXIDE [1]: 34.33 mmol/L
CHLORIDE [1]: 99.17 MEQ/L
CHOLESTEROL [1]: 71.17 mg/dL
CREATINE PHOSPHOKINASE [1]: 258.67 u/L
CREATININE [1]: 0.18 mg/dL
GLUCOSE [1]: 142.67 mg/dL
LACTATE DEHYDROGENASE [1]: 154.33 u/L
LIPASE [1]: 9 u/L
PHOSPHORUS [1]: 11.67 mg/dL
POTASSIUM [1]: 7.13 MEQ/L
SODIUM [1]: 142.22 MEQ/L
TOTAL BILIRUBIN [1]: 0.18 mg/dL
TOTAL PROTEIN [1]: 5.77 G/DL
URIC ACID [1]: 1.55 mg/dL
ABSOLUTE BASOPHIL [2]: 0 CELLS/uL
ABSOLUTE EOSINOPHIL [2]: 23.33 CELLS/uL
ABSOLUTE LYMPHOCYTE [2]: 14943.67 CELLS/uL
ABSOLUTE MONOCYTE [2]: 32 CELLS/uL
ABSOLUTE SEGMENTED NEUTROPHIL [2]: 1084.33 CELLS/uL
BASOPHIL [2]: 0%
EOSINOPHIL [2]: 0.17%
ERYTHROCYTE COUNT [2]: 5.71 x10E6/uL
HEMATOCRIT [2]: 35.28%
HEMOGLOBIN [2]: 14.27 G/DL
LEUKOCYTE COUNT [2]: 16.08 x10E3/uL
LYMPHOCYTE [2]: 93%
MEAN CORPUSCULAR HEMOGLOBIN [2]: 25.02 pg
MEAN CORPUSCULAR HEMOGLOBIN CONCENTRATION [2]: 40.43 G/DL
MEAN CORPUSCULAR VOLUME [2]: 61.82 fL
MONOCYTE [2]: 0.17%
NEUTROPHIL [2]: 6.67%
NUCLEATED RED BLOOD CELLS [2]: 0.33 /100WBC
PLATELET COUNT [2]: 1274 x10E3/uL
ALANINE AMINOTRANSFERASE [2]: 54.17 u/L
ALBUMIN [2]: 4.22 G/DL
ALKALINE PHOSPHATASE [2]: 373.17 u/L
ASPARTATE AMINOTRANSFERASE [2]: 81.83 u/L
BLOOD UREA NITROGEN [2]: 16.67 mg/dL
CARBON DIOXIDE [2]: 30.33 mmol/L
CHLORIDE [2]: 99 MEQ/L
CHOLESTEROL [2]: 71 mg/dL
CREATINE PHOSPHOKINASE [2]: 273.5 u/L
CREATININE [2]: 0.22 mg/dL
GLUCOSE [2]: 141.83 mg/dL
LACTATE DEHYDROGENASE [2]: 153.67 u/L
LIPASE [2]: 10.33 u/L
PHOSPHORUS [2]: 11.38 mg/dL
POTASSIUM [2]: 7.08 MEQ/L
SODIUM [2]: 142.75 MEQ/L
TOTAL BILIRUBIN [2]: 0.18 mg/dL
TOTAL PROTEIN [2]: 6.1 G/DL
URIC ACID [2]: 1.67 mg/dL
ABSOLUTE BASOPHIL [3]: 0 CELLS/uL
ABSOLUTE EOSINOPHIL [3]: 43.67 CELLS/uL
ABSOLUTE LYMPHOCYTE [3]: 14019 CELLS/uL
ABSOLUTE MONOCYTE [3]: 367 CELLS/uL
ABSOLUTE SEGMENTED NEUTROPHIL [3]: 1137 CELLS/uL
BASOPHIL [3]: 0%
EOSINOPHIL [3]: 0.33%
ERYTHROCYTE COUNT [3]: 5.52 x10E6/uL
HEMATOCRIT [3]: 36.5%
HEMOGLOBIN [3]: 14.27 G/DL
LEUKOCYTE COUNT [3]: 15.57 x10E3/uL
LYMPHOCYTE [3]: 89.67%
MEAN CORPUSCULAR HEMOGLOBIN [3]: 25.87 pg
MEAN CORPUSCULAR HEMOGLOBIN CONCENTRATION [3]: 39.17 G/DL
MEAN CORPUSCULAR VOLUME [3]: 66.13 fL
MONOCYTE [3]: 2.33%
NEUTROPHIL [3]: 7.67%
NUCLEATED RED BLOOD CELLS [3]: 0.67 /100WBC
PLATELET COUNT [3]: 1268.67 x10E3/uL
ALANINE AMINOTRANSFERASE [3]: 66 u/L
ALBUMIN [3]: 4.57 G/DL
ALKALINE PHOSPHATASE [3]: 374.67 u/L
ASPARTATE AMINOTRANSFERASE [3]: 95 u/L
BLOOD UREA NITROGEN [3]: 16.67 mg/dL
CARBON DIOXIDE [3]: 29.67 mmol/L
CHLORIDE [3]: 99.67 MEQ/L
CHOLESTEROL [3]: 67 mg/dL
CREATINE PHOSPHOKINASE [3]: 308 u/L
CREATININE [3]: 0.25 mg/dL
GLUCOSE [3]: 141.33 mg/dL
LACTATE DEHYDROGENASE [3]: 432 u/L
LIPASE [3]: 8.67 u/L
PHOSPHORUS [3]: 11.9 mg/dL
POTASSIUM [3]: 6.67 MEQ/L
SODIUM [3]: 145.33 MEQ/L
TOTAL BILIRUBIN [3]: 0.33 mg/dL
TOTAL PROTEIN [3]: 6.13 G/DL
URIC ACID [3]: 2.03 mg/dL
